pIC50: −log10 of the molar value. Active and inactive are the calls of the source. No cut-off for these calls is given here.
Legend:
[1] = test system: PDX27454; assay: Antitumor activity against human PDX27454 cells xenografted in SCID mouse model assessed as reduction in tumor volume at 2 mg/kg,po administrated once per week for 3 weeks; assay type: functional, organism-based
[2] = test system: HCT-116; assay: Induction of apoptosis in human HCT-116 cells assessed as increase in intracellular ROS level incubated for 48 hrs by DCFH-DA staining based fluorescence microscopy; assay type: functional, cell-based
[3] = test system: MCF7; assay: Growth inhibition of human MCF7 cells incubated for 48 hrs by MTT reagent based ELISA reader analysis; assay type: functional, cell-based; settings: MCF7, 48 h
[4] = test system: PDX14244; assay: Antitumor activity against human PDX14244 cells xenografted in SCID mouse model assessed as reduction in tumor volume at 8 mg/kg,po administrated once per week for 3 weeks; assay type: functional, organism-based
[5] = test system: A549; assay: Growth inhibition of human A549 cells incubated for 48 hrs by MTT reagent based ELISA reader analysis; assay type: functional, cell-based; settings: A549, 48 h
[6] = test system: PDX14244; assay: Antitumor activity against human PDX14244 cells xenografted in SCID mouse model assessed as reduction in tumor volume at 2 mg/kg,po administrated once per week for 3 weeks; assay type: functional, organism-based
[7] = test system: HCT-116; assay: Growth inhibition of human HCT-116 cells incubated for 48 hrs by MTT reagent based ELISA reader analysis; assay type: functional, cell-based; settings: HCT-116, 48 h
[8] = test system: HeLa; assay: Growth inhibition of human HeLa cells incubated for 48 hrs by MTT reagent based ELISA reader analysis; assay type: functional, cell-based
[9] = test system: HepG2; assay: Growth inhibition of human HepG2 cells incubated for 48 hrs by MTT reagent based ELISA reader analysis; assay type: functional, cell-based; settings: HepG2, 48 h
[10] = test system: PDX27454; assay: Antitumor activity against human PDX27454 cells xenografted in SCID mouse model assessed as reduction in tumor volume at 8 mg/kg,po administrated once per week for 3 weeks; assay type: functional, organism-based
[11] = test system: HCT-116; assay: Inhibition of cell migration in human HCT-116 cells assessed as intercellular distance at 5 nM incubated for 24 hrs by inverted phase-contrast microscopic analysis (reference value: 1 +/- 0.2 millimeter); assay type: functional
[12] = test system: HCT-116; assay: Induction of apoptosis in human HCT-116 cells at 2.5 to 10 nM incubated for 48 hrs by Annexin V-FITC/PI staining based flow cytometry assay; assay type: functional, cell-based; settings: dose 2.5-10 nM
[13] = test system: HCT-116; assay: Inhibition of cell migration in human HCT-116 cells assessed as intercellular distance at 5 nM by inverted phase-contrast microscopic analysis (reference value: 2.5 +/- 0.7 millimeter); assay type: functional
[14] = test system: HCT-116; assay: Induction of apoptosis in human HCT-116 cells assessed as downregulation of MCL-1 protein expression incubated for 48 hrs by Western blotting analysis; assay type: functional, cell-based
[15] = test system: HCT-116; assay: Inhibition of cell migration in human HCT-116 cells assessed as intercellular distance at 5 nM incubated for 48 hrs by inverted phase-contrast microscopic analysis; assay type: functional
[16] = test system: HCT-116; assay: Induction of apoptosis in human HCT-116 cells assessed as downregulation of XIAP protein expression incubated for 48 hrs by Western blotting analysis; assay type: functional, cell-based
[17] = test system: HCT-116; assay: Induction of apoptosis in human HCT-116 cells assessed as increase in intracellular ROS level at 10 to 1000 nM incubated for 4 to 8 hrs by DCFH-DA staining based fluorescence microscopy; assay type: functional, cell-based; settings: dose 10-1000 nM, time 4-8 hrs
[18] = test system: HCT-116; assay: Inhibition of cell migration in human HCT-116 cells assessed as scratch repair rate at 5 nM incubated for 48 hrs by inverted phase-contrast microscopic analysis; assay type: functional; parameters: scale not given: the % may be the effect or the level left
[19] = biological target: T1, DNA topoisomerase 1 (Homo sapiens) (UniProt P11387); assay: Inhibition of topoisomerase 1 (unknown origin) assessed as relaxation of supercoiled plasmid pBR322 DNA at 25 to 100 uM incubated for 30 mins by ethidium bromide staining based agarose gel electrophoresis; settings: dose 25-100 µM
T1 sequence (whole entry): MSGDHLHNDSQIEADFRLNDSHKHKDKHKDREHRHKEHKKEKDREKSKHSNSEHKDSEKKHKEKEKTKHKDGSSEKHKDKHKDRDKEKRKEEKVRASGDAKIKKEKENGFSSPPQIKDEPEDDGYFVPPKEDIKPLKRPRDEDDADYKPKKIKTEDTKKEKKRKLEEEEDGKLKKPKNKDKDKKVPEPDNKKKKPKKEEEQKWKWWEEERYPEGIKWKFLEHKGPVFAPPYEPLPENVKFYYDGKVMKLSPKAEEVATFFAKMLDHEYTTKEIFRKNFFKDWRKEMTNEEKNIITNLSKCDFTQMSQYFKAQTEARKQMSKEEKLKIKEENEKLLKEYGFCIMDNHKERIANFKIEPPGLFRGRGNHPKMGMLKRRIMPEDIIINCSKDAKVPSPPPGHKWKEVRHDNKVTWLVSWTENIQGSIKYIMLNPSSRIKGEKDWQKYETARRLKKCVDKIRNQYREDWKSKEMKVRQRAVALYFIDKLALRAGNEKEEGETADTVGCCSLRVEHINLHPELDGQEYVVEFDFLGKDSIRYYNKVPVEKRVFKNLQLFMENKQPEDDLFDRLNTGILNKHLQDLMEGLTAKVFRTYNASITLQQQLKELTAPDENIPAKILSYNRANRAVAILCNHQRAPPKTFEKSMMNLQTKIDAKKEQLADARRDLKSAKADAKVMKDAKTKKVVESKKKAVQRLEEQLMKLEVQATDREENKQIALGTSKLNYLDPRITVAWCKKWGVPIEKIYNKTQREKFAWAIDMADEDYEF

[20] = test system: HCT-116; assay: Induction of cell cycle arrest in human HCT-116 cells assessed as accumulation of cells at S phase at 2.5 to 10 nM incubated for 48 hrs by Annexin V-FITC/PI staining based flow cytometry assay; assay type: functional; settings: dose 2.5-10 nM
[21] = test system: HCT-116; assay: Induction of cell cycle arrest in human HCT-116 cells assessed as accumulation of cells at G2/M phase at 2.5 to 10 nM incubated for 48 hrs by Annexin V-FITC/PI staining based flow cytometry assay; assay type: functional; settings: dose 2.5-10 nM
[22] = test system: HCT-116; assay: Induction of apoptosis in human HCT-116 cells assessed as increase in intracellular ROS level at 10 to 1000 nM incubated for 12 hrs by DCFH-DA staining based fluorescence microscopy; assay type: functional, cell-based; settings: dose 10-1000 nM
[23] = test system: HCT-116; assay: Induction of apoptosis in human HCT-116 cells assessed as downregulation of Survivin protein expression incubated for 48 hrs by Western blotting analysis; assay type: functional, cell-based

CC[C@@]1(O)C(=O)OCc2c1cc1n(c2=O)Cc2cc3c(-c4ccc(OC(C)C)cc4)c4c(cc3nc2-1)OCO4
Activity [1]: Active
Activity [2]: Dose-Dependent Effect
pIC50 [3]: 6.22
Activity [4]: Active
pIC50 [5]: 6.85
Activity [6]: Active
pIC50 [7]: 6.02
pIC50 [8]: 6.82
pIC50 [9]: 6.04
Activity [10]: Active

CC[C@@]1(O)C(=O)OCc2c1cc1n(c2=O)Cc2c-1nc1cc3c(cc1c2-c1ccc(C(F)(F)F)cc1)OCO3
Activity [11]: 1.5 mm
Activity [1]: Active
Activity [12]: Active
Activity [13]: 2.6 mm
Activity [2]: Dose-Dependent Effect
pIC50 [3]: 7.33
Activity [14]: Active
Activity [4]: Active
Activity [15]: 0.8 mm
Activity [16]: Active
pIC50 [5]: 7.10
Activity [6]: Active
pIC50 [7]: 7.39
Activity [17]: Active
Activity [18]: 69.2%
Topoisomerase 1 inhibition [19]: Active
Activity [20]: Active
pIC50 [8]: 7.31
pIC50 [9]: 7.06
Activity [21]: Active
Activity [22]: Active
Activity [10]: Active
Activity [23]: Active

CC[C@@]1(O)C(=O)OCc2c1cc1n(c2=O)Cc2cc3c(-c4cccc(C)c4)c4c(cc3nc2-1)OCO4
Activity [1]: Active
pIC50 [3]: 6.88
Activity [4]: Active
pIC50 [5]: < 6.00
Activity [6]: Active
pIC50 [7]: 6.32
pIC50 [8]: 7.49
pIC50 [9]: 6.70
Activity [10]: Active

CC[C@@]1(O)C(=O)OCc2c1cc1n(c2=O)Cc2cc3c(-c4ccc([Si](C)(C)C)cc4)c4c(cc3nc2-1)OCO4
Activity [1]: Active
Activity [2]: Dose-Dependent Effect
pIC50 [3]: 6.98
Activity [4]: Active
pIC50 [5]: 7.07
Activity [6]: Active
pIC50 [7]: 6.60
pIC50 [8]: 6.79
pIC50 [9]: 6.75
Activity [10]: Active
